Usually inhibition stands for the relative decrease from the control value, in per cent.

Holding throughout (format): in vivo
Test [1] has as its system wild oat (Avena fatua L.). Description: Test Example 3: soil treatment, wild oat, visual growth inhibition rate. The following applies: soil treatment the day after sowing, 14th day after treatment. An excerpt: When the herbicidal activity in a case where two active ingredients are combined, is larger than the simple sum of the respective herbicidal activities of the two active ingredients (the expected activity), it is called a synergistic effect. The activity expected by the combination of two active ingredients can be calculated as follows (Colby S. R., “Weed”, vol. 15, p. 20-22, 1967). […] In a case where three active ingredients are combined, the activity can be similarly calculated as follows. […] On the 22nd day after treatment, the state of growth of the common cocklebur was visually observed to determine the growth inhibition rate in accordance with the following evaluation standard. The growth inhibition rate (%) (measured value) and the growth inhibition rate (%) (calculated value) calculated by the Colby's formula are shown in Table 1. […] On the 14th day after treatment, the state of growth of the wild oat was visually observed to determine the growth inhibition rate.

Test [2] relates to sunn-hemp (Crotalaria juncea L.). Description: Test Example 4: soil treatment, sunn-hemp, visual growth inhibition rate. The following applies: soil treatment the day after sowing, 28th day after treatment. An excerpt:
In a case where three active ingredients are combined, the activity can be similarly calculated as follows. E2=(α+β+γ)−(αβ+αγ+βγ)/100+(αβγ)/10000 where α: growth inhibition rate when treated with x (g/ha) of herbicide X,
Growth inhibition rate (%)=0 (equivalent to the non-treated area) to 100 (complete kill)
Upland field soil was put into a 1/300,000 ha pot, and seeds of sunn-hemp (Crotalaria juncea L.) were sown.

For test [3], the system named is spotted knotweed (Polygonum lapathifolium L.). Description: Test Example 7: soil treatment, residual activity, spotted knotweed sown 14 days after treatment. The following applies: seeds sown on the 14th day after treatment, 21st day after sowing. An excerpt: (§1) When the herbicidal activity in a case where two active ingredients are combined, is larger than the simple sum of the respective herbicidal activities of the two active ingredients (the expected activity), it is called a synergistic effect. The activity expected by the combination of two active ingredients can be calculated as follows (Colby S. R., “Weed”, vol. 15, p. 20-22, 1967). E1=α+β-(α×β÷100) On the 22nd day after treatment, the state of growth of the common cocklebur was visually observed to determine the growth inhibition rate in accordance with the following evaluation standard. The growth inhibition rate (%) (measured value) and the growth inhibition rate (%) (calculated value) calculated by the Colby's formula are shown in Table 1. […] Upland field soil was put into a 1/500,000 ha pot, and on the next day, predetermined amounts of […] Dual Gold (tradename) were diluted with water (corresponding to 300 L/ha) and applied for soil treatment by a small sprayer. On the 14th day after treatment, seeds of Japanese bristlegrass (Setaria faberi Herrm) and spotted knotweed, (Polygonum lapathifolium L.) were sown. On the 21st day after sowing, the state of growth of the Japanese bristlegrass and the spotted knotweed was visually observed to determined the growth inhibition rate.

Test [4] concerns green kyllinga (Kyllinga brevifolia Rottb. var. leiolepis) having lowered sensitivity to herbicides. Description: Test Example 6: foliar treatment of green kyllinga having lowered sensitivity to herbicides, visual growth inhibition rate. The conditions noted are these: foliar treatment at height 5 to 7 cm, 21st day after treatment. An excerpt:
When the herbicidal activity in a case where two active ingredients are combined, is larger than the simple sum of the respective herbicidal activities of the two active ingredients (the expected activity), it is called a synergistic effect. The activity expected by the combination of two active ingredients can be calculated as follows (Colby S. […] E1=α+β-(α×β÷100) On the 22nd day after treatment, the state of growth of the common cocklebur was visually observed to determine the growth inhibition rate in accordance with the following evaluation standard. The growth inhibition rate (%) (measured value) and the growth inhibition rate (%) (calculated value) calculated by the Colby's formula are shown in Table 1. […] Upland field soil was put into a 1/1,000,000 ha pot, and rhizomes of green […] brevifolia Rottb. var. leiolepis) having lowered sensitivity to herbicides were planted. When the height of green […] reached 5 to 7 cm, predetermined amounts of […] Dual Gold (tradename) were diluted with water (corresponding to 300 Uha) and applied for foliar treatment by a small sprayer. On the 21st day after treatment, the state of growth of the green […] visually observed to determine the growth inhibition rate.

Test [5] deals with Japanese bristlegrass (Setaria faberi Herrm). Description: Test Example 7: soil treatment, residual activity, Japanese bristlegrass sown 14 days after treatment. The following applies: seeds sown on the 14th day after treatment, 21st day after sowing.
Source text: as §1

The test system of test [6] is Japanese millet (Echinochloa utilis Ohwi et Yabuno). Description: Test Example 2: soil treatment, Japanese millet, visual growth inhibition rate. The conditions noted are these: soil treatment the day after sowing, 27th day after treatment. An excerpt: When the herbicidal activity in a case where two active ingredients are combined, is larger than the simple sum of the respective herbicidal activities of the two active ingredients (the expected activity), it is called a synergistic effect. The activity expected by the combination of two active ingredients can be calculated as follows (Colby S. R., “Weed”, vol. 15, p. 20-22, 1967). E1=α+β−(α×β÷100) On the 22nd day after treatment, the state of growth of the common cocklebur was visually observed to determine the growth inhibition rate in accordance with the following evaluation standard. The growth inhibition rate (%) (measured value) and the growth inhibition rate (%) (calculated value) calculated by the Colby's formula are shown in Table 1. […] Upland field soil was put into a 1/1,000,000 ha pot, and seeds of Japanese millet (Echinochloa utilis Ohwi et Yabuno) were sown. […] On the 27th day after treatment, the state of growth of the Japanese millet was visually observed to determine the growth inhibition rate.

Take `COc1cc(OC)nc(NC(=O)NS(=O)(=O)c2ncccc2C(=O)N(C)C)n1` [Nicosulfuron, 2-(4,6-dimethoxypyrimidin-2-ylcarbamoylsulfamoyl)-N,N-dimethylnicotinamide]: the inhibition at 10 g/ha in test [1] (Avena fatua, dose 10 g/ha, read-out: Growth inhibition rate (%) of wild oat, Measured value) came out at 10%; in test [2] (Crotalaria juncea, dose 10 g/ha, read-out: Growth inhibition rate (%) of sunn-hemp, Measured value) it was 0%. Besides, the inhibition at 100 g/ha was 40% in test [1] (Avena fatua, dose 100 g/ha, read-out: Growth inhibition rate (%) of wild oat, Measured value); 0% in test [2] (Crotalaria juncea, dose 100 g/ha, read-out: Growth inhibition rate (%) of sunn-hemp, Measured value); 40% in test [4] (Cyperus brevifolius, dose 100 g/ha, read-out: Growth inhibition rate (%) of green kyllinga, Measured value); 33% in test [5] (Setaria faberi, dose 100 g/ha, read-out: Growth inhibition rate (%) of Japanese bristlegrass, Measured value). Besides, the inhibition at 30 g/ha in test [3] (Persicaria lapathifolia, dose 30 g/ha, read-out: Growth inhibition rate (%) of spotted knotweed, Measured value) came out at 75%; in test [4] (Cyperus brevifolius, dose 30 g/ha, read-out: Growth inhibition rate (%) of green kyllinga, Measured value), 20%. Moreover, in test [6] (dose 15 g/ha, read-out: Growth inhibition rate (%) of Japanese millet, Measured value), the inhibition at 15 g/ha was 5%.
For “a mixture of (aRS,1S)-2-chloro-6′-ethyl-N-(2-methoxy-1-methylethyl)aceto-o-toluidide (80 to 100%) and (aRS,1R)-2-chloro-6′-ethyl-N-(2-methoxy-1-methylethyl)aceto-o-toluidide (20 to 0%) [S-metolachlor]”, the “Growth inhibition rate (%) of wild oat, Measured value” in test [1] (dose 250 g/ha) turned out to be 15%; in test [1] (dose 2000 g/ha) it was 60%. Besides, the “Growth inhibition rate (%) of sunn-hemp, Measured value” in test [2] (dose 250 g/ha) and in test [2] (dose 2000 g/ha) was 0% throughout. Besides, the “Growth inhibition rate (%) of spotted knotweed, Measured value” in test [3] (dose 1000 g/ha) came to 0%. For the same compound, the “Growth inhibition rate (%) of green kyllinga, Measured value” in test [4] (dose 500 g/ha) was 15%; in test [4] (dose 1000 g/ha), 45%. Besides, the “Growth inhibition rate (%) of Japanese bristlegrass, Measured value” in test [5] (dose 250 g/ha) turned out to be 10%. The “Growth inhibition rate (%) of Japanese millet, Measured value” in test [6] (dose 500 g/ha) is given as 80%.

The values above are taken from patent US10092002B2, “Herbicidal composition comprising nicosulfuron or its salt and S -metolachlor or its salt” (ISHIHARA SANGYO KAISHA, LTD., priority 2011, dated 2018).
